# Measured values: paper PMC5218480 (PLoS ONE, 2017)
# System: MV-4-11 cells
# Assay: Gene expression microarray analysis (Affymetrix PrimeView) and GSEA
# Assay type: cell-based, human
# Design: RFU PODN (11730768_x_at) / Fold change /veh PODN (11730768_x_at) / RFU LINC00158 (11744669_a_at) / Fold change /veh LINC00158 (11744669_a_at) / RFU DUSP10 (11751237_a_at) / Fold change /veh DUSP10 (11751237_a_at) / RFU ID3 (11757404_x_at) / Fold change /veh ID3 (11757404_x_at) / RFU PLEKHG5 (11737974_s_at) / Fold change /veh PLEKHG5 (11737974_s_at) / RFU LRRC4B (11730491_at) / Fold change /veh LRRC4B (11730491_at) / RFU GIMAP4 (11747438_a_at) / Fold change /veh GIMAP4 (11747438_a_at) / RFU KRT8 (11758183_x_at) / Fold change /veh KRT8 (11758183_x_at) / RFU CNN1 (11734310_a_at) / Fold change /veh CNN1 (11734310_a_at) / RFU VPS37D (11726825_at) / Fold change /veh VPS37D (11726825_at) / RFU C10orf10 (11716522_x_at) / Fold change /veh C10orf10 (11716522_x_at) / RFU KIR2DL2 /// KIR2DL4 /// KIR2DL5A /// KIR2DL5B /// KIR2DS1 /// KIR2DS2 /// KIR2DS3 /// KIR2DS4 /// KIR3DL3 /// KIR3DL3 /// KIR3DS1 (11738374_at) / Fold change /veh KIR2DL2 /// KIR2DL4 /// KIR2DL5A /// KIR2DL5B /// KIR2DS1 /// KIR2DS2 /// KIR2DS3 /// KIR2DS4 /// KIR3DL3 /// KIR3DL3 /// KIR3DS1 (11738374_at) / RFU C1QL1 (11718748_at) / Fold change /veh C1QL1 (11718748_at) / RFU TMPRSS4 (11747572_a_at) / Fold change /veh TMPRSS4 (11747572_a_at) / RFU HAMP (11756126_x_at) / Fold change /veh HAMP (11756126_x_at) / RFU RNFT2 (11725882_a_at) / Fold change /veh RNFT2 (11725882_a_at) / RFU NR4A2 (11747474_a_at) / Fold change /veh NR4A2 (11747474_a_at) / RFU ABCC12 (11746883_a_at) / Fold change /veh ABCC12 (11746883_a_at) / RFU TMEM136 (11760407_x_at) / Fold change /veh TMEM136 (11760407_x_at) / RFU CLDN22 /// WWC2 (11732394_at) / Fold change /veh CLDN22 /// WWC2 (11732394_at) / RFU HLA-DPB1 (11760878_x_at) / Fold change /veh HLA-DPB1 (11760878_x_at) / RFU SPINT1 (11716480_a_at) / Fold change /veh SPINT1 (11716480_a_at) / RFU GAP43 (11754022_s_at) / Fold change /veh GAP43 (11754022_s_at) / RFU A4GNT (11735810_at) / Fold change /veh A4GNT (11735810_at) / RFU PRB3 (11715151_x_at) / Fold change /veh PRB3 (11715151_x_at) / RFU TUBB4B (11761932_at) / Fold change /veh TUBB4B (11761932_at) / RFU CAPN14 (11732068_a_at) / Fold change /veh CAPN14 (11732068_a_at) / RFU TMCC2 (11721928_a_at) / Fold change /veh TMCC2 (11721928_a_at) / RFU IRGQ (11745062_a_at) / Fold change /veh IRGQ (11745062_a_at) / RFU FAM174B (11720279_a_at) / Fold change /veh FAM174B (11720279_a_at) / RFU TMPRSS4 (11748680_a_at) / Fold change /veh TMPRSS4 (11748680_a_at) / RFU FAM212B (11763350_a_at) / Fold change /veh FAM212B (11763350_a_at) / RFU PLEKHG5 (11743358_a_at) / Fold change /veh PLEKHG5 (11743358_a_at) / RFU ZSCAN30 (11745921_a_at) / Fold change /veh ZSCAN30 (11745921_a_at) / RFU CMKLR1 (11741424_a_at) / Fold change /veh CMKLR1 (11741424_a_at) / RFU LOC101060620 /// MAPK8IP1 (11723275_at) / Fold change /veh LOC101060620 /// MAPK8IP1 (11723275_at) / RFU SPTSSB (11747773_x_at) / Fold change /veh SPTSSB (11747773_x_at) / RFU PRSS12 (11739890_at) / Fold change /veh PRSS12 (11739890_at) / RFU BIN1 (11741810_x_at) / Fold change /veh BIN1 (11741810_x_at) / RFU WNT11 (11732464_a_at) / Fold change /veh WNT11 (11732464_a_at) / RFU C10orf10 (11716521_a_at) / Fold change /veh C10orf10 (11716521_a_at) / RFU C5orf56 (11738089_at) / Fold change /veh C5orf56 (11738089_at) / RFU CYB561 (11721691_x_at) / Fold change /veh CYB561 (11721691_x_at) / RFU ANKRD19P (11752326_a_at) / Fold change /veh ANKRD19P (11752326_a_at) / RFU OR2T12 /// OR2T33 /// OR2T8 (11738714_s_at) / Fold change /veh OR2T12 /// OR2T33 /// OR2T8 (11738714_s_at) / RFU VCAN (11748164_a_at) / Fold change /veh VCAN (11748164_a_at) / RFU JSRP1 (11732532_at) / Fold change /veh JSRP1 (11732532_at) / RFU KRTAP10-11 (11738290_x_at) / Fold change /veh KRTAP10-11 (11738290_x_at) / RFU MYO3A (11730013_a_at) / Fold change /veh MYO3A (11730013_a_at) / RFU EBF3 (11725865_a_at) / Fold change /veh EBF3 (11725865_a_at) / RFU CAMK2N1 (11719241_x_at) / Fold change /veh CAMK2N1 (11719241_x_at) / RFU C5orf56 (11738088_a_at) / Fold change /veh C5orf56 (11738088_a_at) / RFU OLFML3 (11715873_a_at) / Fold change /veh OLFML3 (11715873_a_at) / RFU LOC100653217 /// NTM (11731650_a_at) / Fold change /veh LOC100653217 /// NTM (11731650_a_at) / RFU MAPK11 (11762145_a_at) / Fold change /veh MAPK11 (11762145_a_at) / RFU FIZ1 (11724087_x_at) / Fold change /veh FIZ1 (11724087_x_at) / RFU OASL (11726364_x_at) / Fold change /veh OASL (11726364_x_at) / RFU SOX15 (11748057_x_at) / Fold change /veh SOX15 (11748057_x_at) / RFU CD79A (11719716_a_at) / Fold change /veh CD79A (11719716_a_at) / RFU HIST1H1D (11736915_at) / Fold change /veh HIST1H1D (11736915_at) / RFU CASKIN2 (11723855_a_at) / Fold change /veh CASKIN2 (11723855_a_at) / RFU LOC730098 (11760151_x_at) / Fold change /veh LOC730098 (11760151_x_at) / RFU OR4N2 (11742367_at) / Fold change /veh OR4N2 (11742367_at) / RFU PRRT2 (11749266_a_at) / Fold change /veh PRRT2 (11749266_a_at) / RFU SNX32 (11753110_a_at) / Fold change /veh SNX32 (11753110_a_at) / RFU CDHR5 (11726645_a_at) / Fold change /veh CDHR5 (11726645_a_at) / RFU RCAN1 (11760418_a_at) / Fold change /veh RCAN1 (11760418_a_at) / RFU FAM167A (11723789_a_at) / Fold change /veh FAM167A (11723789_a_at) / RFU FAM26E (11764081_at) / Fold change /veh FAM26E (11764081_at) / RFU ISYNA1 (11749810_s_at) / Fold change /veh ISYNA1 (11749810_s_at) / RFU ACY1 (11761880_at) / Fold change /veh ACY1 (11761880_at) / RFU 11764098_at / Fold change /veh 11764098_at / RFU SAMD14 (11745864_x_at) / Fold change /veh SAMD14 (11745864_x_at) / RFU NPB (11741838_a_at) / Fold change /veh NPB (11741838_a_at) / RFU TMPRSS6 (11731388_a_at) / Fold change /veh TMPRSS6 (11731388_a_at) / RFU KRTAP10-2 (11738614_at) / Fold change /veh KRTAP10-2 (11738614_at) / RFU ARHGAP8 /// PRR5-ARHGAP8 (11727945_x_at) / Fold change /veh ARHGAP8 /// PRR5-ARHGAP8 (11727945_x_at) / RFU KRTAP5-7 /// NADSYN1 (11734609_at) / Fold change /veh KRTAP5-7 /// NADSYN1 (11734609_at) / RFU RASL12 (11751679_a_at) / Fold change /veh RASL12 (11751679_a_at) / RFU CDKN2B (11736163_a_at) / Fold change /veh CDKN2B (11736163_a_at) / RFU PRF1 (11729649_at) / Fold change /veh PRF1 (11729649_at) / RFU, ZNF638 /// ZNF638-IT1 / Fold change vs veh, ZNF638 /// ZNF638-IT1 / RFU, PANK3 / Fold change vs veh, PANK3 / RFU, SH3YL1 / Fold change vs veh, SH3YL1 / RFU, ZEB2 / Fold change vs veh, ZEB2 / RFU, NRIP1 / Fold change vs veh, NRIP1 / RFU, PTTG1IP / Fold change vs veh, PTTG1IP / RFU, CAPN2 / Fold change vs veh, CAPN2 / RFU, MED14 / Fold change vs veh, MED14 / RFU, SNORA58 / Fold change vs veh, SNORA58 / RFU, C1orf63 / Fold change vs veh, C1orf63 / RFU, LRRFIP1 / Fold change vs veh, LRRFIP1 / RFU, NDUFAF7 / Fold change vs veh, NDUFAF7 / RFU, SLC12A2 / Fold change vs veh, SLC12A2 / RFU, IBTK / Fold change vs veh, IBTK / RFU, ESF1 / Fold change vs veh, ESF1 / Fold change vs veh, TMEM50B / RFU, TAOK1 / Fold change vs veh, TAOK1 / RFU, ACBD3 / Fold change vs veh, ACBD3 / RFU, TMA16 / Fold change vs veh, TMA16 / RFU, RWDD3 / Fold change vs veh, RWDD3 / RFU, BCAT1 / Fold change vs veh, BCAT1 / RFU, EDEM3 / Fold change vs veh, EDEM3 / RFU, TMEM33 / Fold change vs veh, TMEM33 / RFU, WDR75 / Fold change vs veh, WDR75 / RFU, AHCTF1 / Fold change vs veh, AHCTF1 / RFU, TFRC / Fold change vs veh, TFRC / RFU, ZDHHC17 / Fold change vs veh, ZDHHC17 / RFU, NOM1 / Fold change vs veh, NOM1 / RFU, ARL8B / Fold change vs veh, ARL8B / RFU, ZBTB11 / Fold change vs veh, ZBTB11 / RFU, TAMM41 / Fold change vs veh, TAMM41 / RFU, KIAA1704 /// LOC100996395 / Fold change vs veh, KIAA1704 /// LOC100996395 / RFU, ING1 / Fold change vs veh, ING1 / RFU, TRMT61B / Fold change vs veh, TRMT61B / RFU, FUBP3 / Fold change vs veh, FUBP3 / RFU, TP53 / Fold change vs veh, TP53 / RFU, TNKS2 / Fold change vs veh, TNKS2 / RFU, ZFP14 / Fold change vs veh, ZFP14 / RFU, ACTR2 / Fold change vs veh, ACTR2 / RFU, PPP3R1 / Fold change vs veh, PPP3R1 / RFU, PIK3R1 / Fold change vs veh, PIK3R1 / RFU, HNRNPA1 / Fold change vs veh, HNRNPA1 / RFU, RNF170 / Fold change vs veh, RNF170 / RFU, ZNF28 / Fold change vs veh, ZNF28 / RFU, RNGTT / Fold change vs veh, RNGTT / RFU, OGT / Fold change vs veh, OGT / RFU, BRD1 / Fold change vs veh, BRD1 / RFU, MARS / Fold change vs veh, MARS / RFU, ZNF655 / Fold change vs veh, ZNF655 / RFU, FAHD1 / Fold change vs veh, FAHD1 / RFU, BDP1 / Fold change vs veh, BDP1 / RFU, LRRCC1 / Fold change vs veh, LRRCC1 / RFU, ARID1A / Fold change vs veh, ARID1A / RFU, ZNF146 / Fold change vs veh, ZNF146 / RFU, ZNF330 / Fold change vs veh, ZNF330 / RFU, GPN3 / Fold change vs veh, GPN3 / RFU, C9orf123 / Fold change vs veh, C9orf123 / RFU, N4BP2L2 / Fold change vs veh, N4BP2L2 / RFU, ARFIP1 / Fold change vs veh, ARFIP1 / RFU, FAM179B / Fold change vs veh, FAM179B / RFU, BCL10 / Fold change vs veh, BCL10 / RFU, UHRF1BP1L / Fold change vs veh, UHRF1BP1L / RFU, BET1 / Fold change vs veh, BET1 / RFU, CNOT2 / Fold change vs veh, CNOT2 / RFU, ZNF268 / Fold change vs veh, ZNF268 / Fold change vs veh, ZNF507 / RFU, DGCR2 / Fold change vs veh, DGCR2 / RFU, WDSUB1 / Fold change vs veh, WDSUB1 / Fold change vs veh, HSP90B1 /// MIR3652 / RFU, ADSS / Fold change vs veh, ADSS / RFU, GK / Fold change vs veh, GK / RFU, ZNF148 / Fold change vs veh, ZNF148 / RFU, TAF9 / Fold change vs veh, TAF9 / RFU, SLC1A5 / Fold change vs veh, SLC1A5 / RFU, SLMO2 / Fold change vs veh, SLMO2 / RFU, ABCC4 / Fold change vs veh, ABCC4 / RFU, LOC101060439 /// RAP1B / Fold change vs veh, LOC101060439 /// RAP1B / RFU, RFX7 / Fold change vs veh, RFX7 / RFU, GTPBP10 / Fold change vs veh, GTPBP10 / RFU, CNEP1R1 / Fold change vs veh, CNEP1R1 / RFU, BIVM-ERCC5 /// ERCC5 / Fold change vs veh, BIVM-ERCC5 /// ERCC5 / RFU, ILF3 / Fold change vs veh, ILF3 / RFU 11762660_at / Fold change /veh 11762660_at / RFU VCAN (11757783_s_at) / Fold change /veh VCAN (11757783_s_at) / RFU DDX43 (11728927_at) / Fold change /veh DDX43 (11728927_at) / RFU KRT8 (11758188_x_at) / Fold change /veh KRT8 (11758188_x_at) / RFU NKD1 (11759106_at) / Fold change /veh NKD1 (11759106_at) / RFU SRD5A1 (11742802_a_at) / Fold change /veh SRD5A1 (11742802_a_at) / RFU TPSAB1 /// TPSB2 (11721975_s_at) / Fold change /veh TPSAB1 /// TPSB2 (11721975_s_at) / RFU GSTM3 (11746129_a_at) / Fold change /veh GSTM3 (11746129_a_at) / RFU IL23R (11737362_x_at) / Fold change /veh IL23R (11737362_x_at) / RFU TMEM51 (11727254_a_at) / Fold change /veh TMEM51 (11727254_a_at) / RFU PIWIL2 (11732686_x_at) / Fold change /veh PIWIL2 (11732686_x_at) / RFU ORM1 (11744905_x_at) / Fold change /veh ORM1 (11744905_x_at) / RFU CCDC152 (11743942_at) / Fold change /veh CCDC152 (11743942_at) / RFU ECM1 (11717891_a_at) / Fold change /veh ECM1 (11717891_a_at) / RFU IL23R (11748794_a_at) / Fold change /veh IL23R (11748794_a_at) / RFU TNFAIP8L3 (11732012_x_at) / Fold change /veh TNFAIP8L3 (11732012_x_at) / RFU MBOAT4 (11741988_at) / Fold change /veh MBOAT4 (11741988_at) / RFU 11764193_at / Fold change /veh 11764193_at / RFU TMEM53 (11763286_at) / Fold change /veh TMEM53 (11763286_at) / RFU MAGEB2 (11727129_at) / Fold change /veh MAGEB2 (11727129_at) / RFU TMEM200A (11744735_a_at) / Fold change /veh TMEM200A (11744735_a_at) / RFU CCDC152 (11751479_a_at) / Fold change /veh CCDC152 (11751479_a_at) / RFU FAM211A (11726209_a_at) / Fold change /veh FAM211A (11726209_a_at) / RFU RGS16 (11746705_a_at) / Fold change /veh RGS16 (11746705_a_at) / RFU VCAN (11755009_s_at) / Fold change /veh VCAN (11755009_s_at) / RFU RHOB (11743442_s_at) / Fold change /veh RHOB (11743442_s_at) / RFU RGS16 (11720943_a_at) / Fold change /veh RGS16 (11720943_a_at) / RFU RGS16 (11720944_at) / Fold change /veh RGS16 (11720944_at) / RFU, VPS4B / Fold change vs veh, VPS4B / RFU, CREB1 / Fold change vs veh, CREB1 / RFU, DNAJC13 / Fold change vs veh, DNAJC13 / RFU, GNAQ / Fold change vs veh, GNAQ / RFU, CDK5R1 / Fold change vs veh, CDK5R1 / RFU, ZRANB3 / Fold change vs veh, ZRANB3 / RFU, CUL4A / Fold change vs veh, CUL4A / RFU, CCNY / Fold change vs veh, CCNY / RFU, UFL1 / Fold change vs veh, UFL1 / RFU, COG3 / Fold change vs veh, COG3 / RFU, DIAPH2 / Fold change vs veh, DIAPH2 / RFU, SKA2 / Fold change vs veh, SKA2 / RFU, AFF3 / Fold change vs veh, AFF3 / RFU, LMF1 / Fold change vs veh, LMF1 / RFU, IPO11 / Fold change vs veh, IPO11 / RFU, DFFB / Fold change vs veh, DFFB / RFU, FOXP1 / Fold change vs veh, FOXP1 / RFU, CARD8 / Fold change vs veh, CARD8 / RFU, STRN3 / Fold change vs veh, STRN3 / RFU, ADK / Fold change vs veh, ADK / RFU, RASSF2 / Fold change vs veh, RASSF2 / RFU, WIPF1 / Fold change vs veh, WIPF1 / RFU, LARP1B / Fold change vs veh, LARP1B / RFU, RASA1 / Fold change vs veh, RASA1 / RFU, RB1 / Fold change vs veh, RB1 / RFU, PPFIA1 / Fold change vs veh, PPFIA1 / RFU, MAT2A / Fold change vs veh, MAT2A / RFU, CCT5 / Fold change vs veh, CCT5 / RFU, WDR92 / Fold change vs veh, WDR92 / RFU, CUX1 / Fold change vs veh, CUX1 / RFU, TTC7A / Fold change vs veh, TTC7A / RFU, TMEM135 / Fold change vs veh, TMEM135 / RFU, DEPTOR / Fold change vs veh, DEPTOR / RFU, CPM / Fold change vs veh, CPM / RFU, DNAJB6 / Fold change vs veh, DNAJB6 / RFU, CACNA2D3 / Fold change vs veh, CACNA2D3 / RFU, DTX4 / Fold change vs veh, DTX4 / RFU, TFCP2 / Fold change vs veh, TFCP2 / RFU, GMCL1 /// GMCL1P1 / Fold change vs veh, GMCL1 /// GMCL1P1 / RFU, AEBP2 / Fold change vs veh, AEBP2 / RFU, SNHG1 /// SNORD22 /// SNORD25 /// SNORD26 /// SNORD27 /// SNORD28 /// SNORD29 /// SNORD31 / Fold change vs veh, SNHG1 /// SNORD22 /// SNORD25 /// SNORD26 /// SNORD27 /// SNORD28 /// SNORD29 /// SNORD31 / Fold change (Aza/veh), C12orf56 (ProbeSet 11735607_a_at) / Fold change (ACY-1035/veh), C12orf56 (ProbeSet 11735607_a_at) / Fold change (Aza/veh), FGFR1OP (ProbeSet 11751329_s_at) / Fold change (ACY-1035/veh), FGFR1OP (ProbeSet 11751329_s_at) / Fold change (Aza/veh), VPS36 (ProbeSet 11739960_a_at) / Fold change (ACY-1035/veh), VPS36 (ProbeSet 11739960_a_at) / RFU SYPL1 (11715823_x_at) / Fold change /veh SYPL1 (11715823_x_at) / RFU IGFBP7 (11715501_s_at) / Fold change /veh IGFBP7 (11715501_s_at) / RFU REEP3 (11722064_at) / Fold change /veh REEP3 (11722064_at) / RFU IGLL1 (11728026_x_at) / Fold change /veh IGLL1 (11728026_x_at): dose or concentration left out as unconfirmed
# Conditions: ProbeSet 11759094_a_at; LIST D
smiles,measurement,value
Nc1ccc(-c2cccs2)cc1NC(=O)c1ccc2c(c1)cc(C1CC1)n2CCN1CCOCC1 [ACY-1035],"Fold change vs veh, GNAQ",0.89
